Measured values published in BindingDB's records for doi:10.1021/jm101011y (University of Basel, 2010).

Assay: Antagonist activity at Escherichia coli UT189 FimH in guinea pig red blood cells assessed as disaggregation of bacteria after 600 secs by aggregometry assay

Row | IC50 [µM] | SMILES
1 | 31 | COC(=O)c1ccc(-c2ccc(Cl)c(O[C@H]3O[C@H](CO)[C@@H](O)[C@H](O)[C@@H]3O)c2)cc1
2 | 45 | O=C(O)c1ccc(-c2ccc(O[C@H]3O[C@H](CO)[C@@H](O)[C@H](O)[C@@H]3O)cc2)cc1
3 | 41 | COC(=O)c1ccc(-c2ccc(O[C@H]3O[C@H](CO)[C@@H](O)[C@H](O)[C@@H]3O)cc2Cl)cc1
4 | 17 | O=C(O)c1ccc(-c2ccc(O[C@H]3O[C@H](CO)[C@@H](O)[C@H](O)[C@@H]3O)cc2Cl)cc1
5 | 45 | O=C(O)c1ccc(-c2cccc(O[C@H]3O[C@H](CO)[C@@H](O)[C@H](O)[C@@H]3O)c2)cc1
6 | 9 | COC(=O)c1ccc(-c2ccc(O[C@H]3O[C@H](CO)[C@@H](O)[C@H](O)[C@@H]3O)c(Cl)c2)cc1
7 | 10 | O=C(O)c1ccc(-c2ccc(O[C@H]3O[C@H](CO)[C@@H](O)[C@H](O)[C@@H]3O)c(Cl)c2)cc1

Row | SMILES | IC50 [µM]
8 | COC(=O)c1ccc(-c2cc(Cl)c(O[C@H]3O[C@H](CO)[C@@H](O)[C@H](O)[C@@H]3O)c(Cl)c2)cc1 | 14
